Key:
[1] = 298.15 K, 101.3 kPa, Crystal
[2] = molar heat capacity at constant pressure; settings: 101.33 kPa, Crystal, DSC
[3] = xn = mol fraction of the nth substance listed; settings: 298.15 K, 101.3 kPa, Crystal, x2 = 0
[4] = molar heat capacity at constant pressure; xn = mol fraction of the nth substance listed; settings: 101.3 kPa, Crystal, DSC, x2 = 0

[O-2].[O-2].[U+4] [uranium dioxide]
Settings | mass density [kg/m3] | molar heat capacity at constant pressure [J/K/mol]
[1], From pellet mass and volume | 10570 | –
[1], X-ray diffraction | 10970 | –
[1], buoyancy | 10660 | –
[2], 300 K | – | 64.6
[2], 310 K | – | 66.2
[2], 320 K | – | 66.8
[2], 330 K | – | 67.7
[2], 340 K | – | 68.7
[2], 350 K | – | 69.1
[2], 360 K | – | 69.5
[2], 370 K | – | 70.5
[2], 380 K | – | 71.2
[2], 390 K | – | 71.2
[2], 400 K | – | 72.5
[2], 410 K | – | 72.8
[2], 420 K | – | 73.4
[2], 430 K | – | 73.5
[2], 440 K | – | 74.4
[2], 450 K | – | 74.6
[2], 460 K | – | 74.9
[2], 470 K | – | 75.5
[2], 480 K | – | 76.2
[2], 490 K | – | 76.4
[2], 500 K | – | 76.5
[2], 510 K | – | 76.6
[2], 520 K | – | 76.7
[2], 530 K | – | 77.1
[2], 540 K | – | 77
[2], 550 K | – | 77.1
[2], 560 K | – | 77.3
[2], 570 K | – | 77.9
[2], 580 K | – | 78.2
[2], 590 K | – | 79
[2], 600 K | – | 79.1
[2], 610 K | – | 79.7
[2], 620 K | – | 79.4
[2], 630 K | – | 79.6
[2], 640 K | – | 80.3
[2], 650 K | – | 79.8
[2], 660 K | – | 80.5
[2], 670 K | – | 80.5
[2], 680 K | – | 80.7
[2], 690 K | – | 81.1
[2], 700 K | – | 80.4
[2], 710 K | – | 80.8
[2], 720 K | – | 81.2
[2], 730 K | – | 81.7
[2], 740 K | – | 82.2
[2], 750 K | – | 82.9
[2], 760 K | – | 82.4
[2], 770 K | – | 82.7
[2], 780 K | – | 83.4
[2], 790 K | – | 83.9
[2], 800 K | – | 83.7
[2], 810 K | – | 84.1
[2], 820 K | – | 83.8
[2], 830 K | – | 84.2
[2], 840 K | – | 84.1
[2], 850 K | – | 83.7
[2], 860 K | – | 84.1
[2], 870 K | – | 84.5

[O-2].[O-2].[U+4] [uranium dioxide] + [O-2].[O-2].[Th+4]
Settings | mass density [kg/m3] | molar heat capacity at constant pressure [J/K/mol]
[3], From pellet mass and volume | 10570 | –
[3], X-ray diffraction | 10970 | –
[3], buoyancy | 10660 | –
[4], 300 K | – | 64.6
[4], 310 K | – | 66.2
[4], 320 K | – | 66.8
[4], 330 K | – | 67.7
[4], 340 K | – | 68.7
[4], 350 K | – | 69.1
[4], 360 K | – | 69.5
[4], 370 K | – | 70.5
[4], 380 K | – | 71.2
[4], 390 K | – | 71.2
[4], 400 K | – | 72.5
[4], 410 K | – | 72.8
[4], 420 K | – | 73.4
[4], 430 K | – | 73.5
[4], 440 K | – | 74.4
[4], 450 K | – | 74.6
[4], 460 K | – | 74.9
[4], 470 K | – | 75.5
[4], 480 K | – | 76.2
[4], 490 K | – | 76.4
[4], 500 K | – | 76.5
[4], 510 K | – | 76.6
[4], 520 K | – | 76.7
[4], 530 K | – | 77.1
[4], 540 K | – | 77
[4], 550 K | – | 77.1
[4], 560 K | – | 77.3
[4], 570 K | – | 77.9
[4], 580 K | – | 78.2
[4], 590 K | – | 79
[4], 600 K | – | 79.1
[4], 610 K | – | 79.7
[4], 620 K | – | 79.4
[4], 630 K | – | 79.6
[4], 640 K | – | 80.3
[4], 650 K | – | 79.8
[4], 660 K | – | 80.5
[4], 670 K | – | 80.5
[4], 680 K | – | 80.7
[4], 690 K | – | 81.1
[4], 700 K | – | 80.4
[4], 710 K | – | 80.8
[4], 720 K | – | 81.2
[4], 730 K | – | 81.7
[4], 740 K | – | 82.2
[4], 750 K | – | 82.9
[4], 760 K | – | 82.4
[4], 770 K | – | 82.7
[4], 780 K | – | 83.4
[4], 790 K | – | 83.9
[4], 800 K | – | 83.7
[4], 810 K | – | 84.1
[4], 820 K | – | 83.8
[4], 830 K | – | 84.2
[4], 840 K | – | 84.1
[4], 850 K | – | 83.7
[4], 860 K | – | 84.1
[4], 870 K | – | 84.5

Reference: the NIST ThermoML archive (doi:10.1016/j.tca.2017.04.014)
